PubChem BioAssay AID720512 (Broad Institute, 2013)
The source made the active and inactive calls. The rule behind the calls is not given here.

target: Toxin B (TcdB) glycohydrolase, Clostridioides difficile 630; test: TcdB glycohydrolase inhibitors, dose response, biochemical, cherry-pick, plate reader (AID 720512); settings: recombinant TcdB glycohydrolase activity

Compound	AC50
ON=C1c2ccccc2-c2ccc(O)cc21	22 µM
O=C(O)c1ccc(-c2ccc(O)c(F)c2)cc1	> 39 µM (inactive)
CCCNC(=O)N1CC[C@@H]2[C@@H](CO)N(C)c3ccc(-c4ccccc4)cc3[C@@H]21	> 39 µM (inactive)
Cc1cccc(NC(=O)c2ccc(N3CCOCC3)c([N+](=O)[O-])c2)n1	> 39 µM (inactive)
Oc1ccc(Cc2ccccc2Cl)c(O)c1	> 39 µM (inactive)
Cc1cc(C(=O)NNc2ccc(C)c(C)c2)no1	2.24 µM
CNc1cncc(-c2ccc(O)cc2)n1	> 39 µM (inactive)
CCn1c(=S)[nH]c2c(=O)n(C)c(=O)n(C)c21	10.8 µM
C/C(=N\Nc1cc(N2CCOCC2)ncn1)c1ccc(O)cc1	> 39 µM (inactive)
Cc1ccc(-n2c(SCC(=O)O)nc3c(sc(=S)n3-c3ccc(C)c(C)c3)c2=O)cc1	> 39 µM (inactive)

same assay, conditions: recombinant TcdB glycohydrolase activity, at 10 µM (top of the series)

Compound	activity change, negative = inhibition
O=c1c(OC2OC(CO)C(O)C(O)C2O)c(-c2ccc(O)c(O)c2)oc2cc(O)cc(O)c12 (centres undefined)	inactive
O=C(COc1cccc(C(F)(F)F)c1)N1CCN(c2ccc(O)cc2)CC1	inactive

same assay, conditions: recombinant TcdB glycohydrolase activity, at 19.5 µM (top of the series)

Compound	activity change, negative = inhibition
COc1ccccc1/C=C/c1onc(C)c1S(=O)(=O)N1CCC(C(=O)NC2CCCCCC2)CC1	inactive
S=c1[nH]nc2ccccn12	inactive
Nc1nnn(CC(=O)N/N=C/c2ccc(O)cc2)n1	inactive
COc1ccc(CC(=O)C2C(=O)N(C)c3ccccc32)cc1OC (centres undefined)	inactive
O=C(CN1C(=O)CCC1=O)NNc1ccc2ccccc2c1	inactive
O=C(NC(=S)NNS(=O)(=O)c1ccccc1)c1cccnc1	inactive
Cc1cnc(C(=O)OCC(=O)Nc2ccc(OCc3ccccc3)cc2)cn1	inactive
O=[N+]([O-])c1ccc(S(=O)(=O)Nc2nc(-c3ccccc3)cs2)cc1	inactive
O=C(C[C@H]1C[C@H]2c3cc(NC(=O)c4ccc5c(c4)OCO5)ccc3O[C@H]2[C@H](CO)O1)NCc1cccc(F)c1	inactive
COc1cc(-c2n[nH]c(=S)n2/N=C/c2cccn2C)cc(OC)c1OC	inactive
O=C(C[C@H]1CC[C@H]2[C@@H](COC[C@H](O)CN2C(=O)Nc2ccc(Cl)c(Cl)c2)O1)NCc1ccncc1	inactive
CC(=O)Nc1ccc(S(=O)(=O)N2CCCC(C(=O)O)C2)cc1 (centres undefined)	inactive
CCOc1ccc(S(=O)(=O)NCCC(=O)NCc2ccccn2)cc1	inactive
Cc1ccccc1S(=O)(=O)N1CCCc2nc(C)c(C)cc21	inactive
CNC(=O)C[C@H]1CC[C@@H]2[C@H](COc3ccc(NC(=O)Nc4ccc(C)cc4)cc3C(=O)N2C)O1	inactive
COc1ccc(CNC(=O)c2cc3c(s2)CN(Cc2ccccc2)C3)cc1	inactive
COc1cc(/C=N/Nc2nc3ccccc3[nH]2)ccc1O	inactive
COc1c2ccc(C(=O)NCCCCc3ccccc3)cc2nn1C	inactive
CCOCC(=O)Nc1cc(Cl)ccc1C	inactive
CC(C)Cc1[nH]c(=O)c(C#N)c2c1CCCC2	inactive
Cn1ncc(Br)c1C(=O)N/N=C/c1cccc(OC2CSC2)c1	inactive
C[C@H](CO)N1C[C@H](C)[C@@H](CN(C)CC2CCCCC2)Oc2ccc(NC(=O)CCN3CCOCC3)cc2C1=O	inactive
CC(=O)N(c1ccccc1C)S(=O)(=O)c1ccc(Cl)cc1	inactive
CCCNC(=O)Nc1ccc2c(c1)C(=O)N(C)[C@@H]1CC[C@H](CC(=O)NC3CCC3)O[C@H]1CO2	inactive
COc1cccc(C(=O)C2CCCN(Cc3ccc(F)cc3)C2)c1 (centres undefined)	inactive

Compound	activity change, negative = inhibition
Oc1ccc2c(ccc3[nH]cnc32)c1	inactive
CCN1CCN(C(=O)C2=CC(c3ccc(OC)cc3)=NS(=O)(=O)N2C)CC1	inactive
O=C(NNc1nc2c(F)cc(F)cc2s1)C1COc2ccccc2O1 (centres undefined)	inactive
Cc1cccc(-n2nnc(C(=O)NCc3ccccc3Cl)c2N)c1	inactive
NS(=O)(=O)c1ccc(CCNC(=O)c2ccc(CS(=O)(=O)c3ccc(Br)cc3)o2)cc1	inactive
S=c1nc(-c2cccc(Cl)c2)[nH][nH]1	inactive
COc1ccc(CC(=O)NNC(=S)NC(=O)c2cccnc2)cc1	inactive
CCOCCCNC(=O)C1CCN(S(=O)(=O)c2c(C)noc2/C=C\c2ccc(OC)cc2)CC1	inactive
COc1cc(/C=C/C(=O)c2ccc([N+](=O)[O-])o2)ccc1O	inactive
O=C(NN=Cc1cc(Br)c(O)c(Br)c1)c1ccccc1NS(=O)(=O)c1cccs1	inactive
Cc1cc(N/N=C/c2ccncc2)nc2ccccc12	inactive
CC(OC(=O)c1cccnc1Cl)C(=O)NC1CCCCC1 (centres undefined)	inactive
CCCCn1c(=S)[nH]c2c(=O)n(C)c(=O)n(C)c21	inactive
CCN1CCN(S(=O)(=O)c2ccc3[nH]c(=O)oc3c2)CC1	inactive
Cc1[nH]nc(-c2ccc(O)cc2O)c1Oc1ccccc1	inactive
COc1ccc(/C=C2/C(=O)C(C)(C(C)C)CCC2C)cc1 (centres undefined)	inactive
O=c1[nH]nc(-c2cc(-c3ccccc3)nc3ccccc23)o1	inactive
CC(=O)Nc1ccc(S(=O)(=O)Nc2nc3ccccc3nc2-n2ccc(=NC(=O)c3ccc(F)cc3)cc2)cc1	inactive
CC[C@H](C)[C@@H]1NC(=O)c2cc([N+](=O)[O-])cc(I)c2NCC[C@@H](C(N)=O)NC(=O)[C@H](CCCN=C(N)N)NC1=O	inactive
Fc1ccccc1Nc1n[nH]c(=S)s1	inactive
C[C@@H]1CN([C@H](C)CO)C(=O)c2cccc(N(C)C)c2O[C@@H]1CN(C)C(=O)Nc1ccc(C(F)(F)F)cc1	inactive
Cc1csc(N=Nc2ccc(N(C)C)cc2)[n+]1[O-]	inactive
CC(=O)c1ccc(Nc2ccc(-c3ccccc3F)nn2)cc1	inactive
Cc1ccc(-c2nc3ccc([N+](=O)[O-])cc3[nH]2)cc1	inactive
C=CCn1c(SCC(=O)N2CC(=O)Nc3ccccc32)nc2scc(-c3ccccc3)c2c1=O	inactive

Compound	activity change, negative = inhibition
O=c1c2ccc(Cl)cc2[nH]c(=S)n1-c1cccnc1	inactive
Clc1cccc(-c2ccc3ncnc(NCc4cccs4)c3c2)c1	inactive
CCC(=O)Nc1ccc2c(c1)OC[C@@H](C)N(C(=O)NC(C)C)C[C@H](C)[C@H](OC)CN(C)C2=O	inactive
COc1ccccc1C1=NNC(=NCc2ccccc2)SC1	inactive
O=C(Nc1ccc(O)cc1)/C(=C/c1ccco1)NC(=O)c1ccccc1	inactive
COc1cccc(/C=C/c2onc(C)c2S(=O)(=O)N2CCC(C(=O)NC3CCCCCC3)CC2)c1	inactive
CN1CCN(CC(=O)Nc2cc(N(C)C)nc3ccccc23)CC1	inactive
Cc1cc(C)nc(/N=C(\N)Nc2ccccc2-c2ccccc2)n1	inactive
O=C(CNS(=O)(=O)c1ccccc1)N/N=C/c1ccc(O)cc1	inactive
CN1C(=O)c2cc(NC(=O)c3cccc(F)c3)ccc2OC[C@H]2O[C@H](CC(=O)NCC3CCCCC3)CC[C@@H]21	inactive
CC(/C=N/n1c(-c2ccncc2)n[nH]c1=S)=C\c1ccco1	inactive
Cc1scc(C(=O)N2CCN(c3ccc(Cl)cc3)CC2)c1C	inactive
COc1ccc(C(=O)Nc2c(-c3cccs3)c(=O)c3ccccc3n2C)cc1	inactive
COc1ccc(C2=NS(=O)(=O)N(C)C(C(=O)N3CCN(C)CC3)=C2)cc1	inactive
CC(Sc1nc(N)cc(=O)[nH]1)C(=O)NCC(=O)Nc1ccc(F)c(F)c1F (centres undefined)	inactive
CC1=C(C(=O)OCC2CCCO2)C(c2coc3ccccc3c2=O)C2=C(CCCC2=O)N1 (centres undefined)	inactive
NNC(=O)CNC(=O)Nc1n[nH]c(=S)s1	inactive
O=C(NCCc1ccc(Cl)cc1)C1CCN(S(=O)(=O)c2ccc(Br)s2)CC1	inactive
C[C@H](CO)N1C[C@H](C)[C@H](CN(C)Cc2ccc(Oc3ccccc3)cc2)Oc2cc(-c3ccncc3)ccc2S1(=O)=O	inactive
COc1cc(/C=N/NC(=O)C2COc3ccccc3O2)ccc1O (centres undefined)	inactive
Cc1ccccc1COc1ccc2oc(C)c(C(=O)O)c2c1	inactive
COc1ccccc1CNC(=O)CN(c1ccc(C)cc1)S(=O)(=O)c1c(C)n[nH]c1C	inactive
O=C(NC(=S)Nc1ccc(O)cc1)c1cncc(Br)c1	inactive
Cc1cccc(-n2c(=O)c3ccccc3n3c(=S)[nH]nc23)c1C	inactive

same assay, conditions: recombinant TcdB glycohydrolase activity, at 21 µM (top of the series)

Compound	activity change, negative = inhibition
CCNC(=O)C[C@@H]1CC[C@H]2[C@@H](COc3ccc(NC(C)=O)cc3C(=O)N2C)O1	inactive
CN1C(=O)c2cc(NC(=O)Nc3ccccc3Cl)ccc2OC[C@H]2O[C@@H](CC(=O)NCCCN3CCOCC3)CC[C@H]21	inactive
CC(=O)N1CC[C@@H]2[C@@H](CO)Nc3ccc(-c4ccccc4)cc3[C@@H]21	inactive
